The test system of one series is A549. Put plainly: Cytotoxicity against human A549 cells assessed as reduction in cell viability up to 1600 uM after 16 hrs by MTT assay. The series is classed as functional, cell-based. In general terms: Formazan colour is commonly taken as a measure of viable cells.
Series [1] is described as follows: Drug uptake in human A549 cells at 30 uM after 7 to 24 hrs under hypoxic condition by ICP-MS analysis. The settings on record: a549, 30 µM. It counts as ADME, cell-based.
Series [2] can be described thus: Drug uptake in human HeLaS3 cells at 30 uM after 7 to 24 hrs under normoxic condition by ICP-MS analysis. The series is classed as ADME, cell-based. The conditions noted are these: hela s3, 30 µM.
The nature of series [3]: Drug uptake in human HeLaS3 cells at 30 uM after 7 to 24 hrs under hypoxic condition by ICP-MS analysis. The series is classed as ADME, cell-based. The settings on record: hela s3, 30 µM.
For a further series, the system named is HeLa S3. Put plainly: Cytotoxicity against human HeLaS3 cells assessed as reduction in cell viability up to 1600 uM after 16 hrs by MTT assay. It counts as functional, cell-based.
Series [4] is described as follows: Drug uptake in human A549 cells at 30 uM after 7 to 24 hrs under normoxic condition by ICP-MS analysis. It counts as ADME, cell-based. The settings on record: a549, 30 µM.
Series [5] can be described thus: (§1) Substrate activity at hexokinase (unknown origin) assessed as compound phosphorylation after 1 days in presence of ATP by 31-P NMR spectroscopic analysis. It counts as ADME. The settings on record: human, 24 h.
Series [6] is described as follows: Drug uptake in human HeLaS3 cells assessed per cell at 30 uM after 7 hrs under normoxic condition by ICP-MS analysis. The series is classed as ADME, cell-based. The conditions noted are these: hela s3, 7 h.
A short description of series [7]: Drug uptake in human HeLaS3 cells assessed per cell at 30 uM after 7 hrs under hypoxic condition by ICP-MS analysis. The series is classed as ADME, cell-based. The conditions noted are these: hela s3, 7 h.
The test system of series [8] is hexokinase. Description: Substrate activity at hexokinase (unknown origin) assessed as compound phosphorylation after 5 days in presence of ATP by 31-P NMR spectroscopic analysis. The settings on record: human, hexokinase (isolated enzyme); read-out: Activity. It counts as ADME.
For series [9], the system named is hexokinase. The description is as §1. The series is classed as ADME. The settings on record: human, hexokinase (isolated enzyme); read-out: Activity.

Each structure is given as a SMILES string. The source made the active and inactive calls. No cut-off for these calls is given here.

On to `CC1(C)OB([C@H]2CO[C@H](CO)[C@@H](O)[C@@H]2O)OC1(C)C`, for which the result with A549 and in the series with HeLa S3 was Active. Also, the Drug uptake entry in [1], in series [2], in series [3] and in series [4] was “Active” throughout. In series [5], the Activity entry is listed as “Not Active”.
For the molecule `OC[C@H]1OC[C@H](B2OCCCO2)[C@@H](O)[C@@H]1O`, the outcome in the series on A549 and with HeLa S3 was Active. Besides, the Drug uptake result in series [2] and in series [4] was “Active” throughout.
On to `CC1CC(C)OB([C@H]2CO[C@H](CO)[C@@H](O)[C@@H]2O)O1` (stereo partly drawn), for which the outcome in the series on A549 and in the series with HeLa S3 was Active. The Drug uptake result in series [2] and in series [4] was “Active” in each case.
`OC[C@H]1OC[C@H](B2OC3(CCCCC3)C3(CCCCC3)O2)[C@@H](O)[C@@H]1O`: the outcome in the series with A549 and in the series with HeLa S3 was Active. The Drug uptake result in series [1], in [2], in series [3] and in [4] was “Active” throughout.
For the molecule `N[C@@H](Cc1ccc(B(O)O)cc1)C(=O)O`, the result with A549 and in the series with HeLa S3 was Active. Also, the Drug uptake entry in series [1], in series [2], in [3] and in series [4] was “Active” throughout.
With `OC[C@H]1OC[C@H](B(O)O)[C@@H](O)[C@@H]1O`, the result with A549 and in the series with HeLa S3 was Active. Besides, the Drug uptake result in [1] was “Active”; in [2], “Active”; in series [3] it was “Active”; in series [4], “Active”; in series [6], 0.3 fmol; in series [7], 0.4 fmol. Besides, the outcome in [5] was Active.
`O=P(O)(O)OC[C@H]1OC(O)[C@H](O)[C@@H](O)[C@@H]1O` (stereo partly drawn): the metabolised at 120 h in the series on hexokinase [8] was 19%. Further, the outcome in [5] was Active.
Turning to `OC[C@H]1OC(O)[C@H](O)[C@@H](O)[C@@H]1O` (stereo partly drawn) [DEXTROSE], in the series on hexokinase [9], the metabolised at 24 h was determined as 97%.
`c1ccc(B2OC3(CCCCC3)C3(CCCCC3)O2)c(CN2CCNCCNCCNCC2)c1`: the Drug uptake entry in series [1], in series [2], in [3] and in series [4] was “Active” throughout.

The values above are taken from ChEMBL document CHEMBL4261649, “Design and synthesis of boron containing monosaccharides by the hydroboration of d-glucal for use in boron neutron capture therapy (BNCT)” (Bioorg Med Chem, 2018).
